This is an account of results in patent publication EP0505817A1, “Use of phosphatidylserine and its derivatives for the manufacture of a medicament for the treatment of degenerative pathologies also associated with immune disfunctions” (FIDIA S.p.A., priority 1991, dated 1992).

The subject of this assay is TNF-α. Description: Serum TNF induced by LPS in the mouse after phospholipid pretreatment (L-929 cytotoxicity bioassay). It is filed as in vivo. The settings on record: S. Thyphi LPS 5 µ i.p., blood 60' later; for TNF-α title treated: average ± SEM. As for the experimental part:
Utilized are: • 170 Charles River CD-1 albino male mice weighing about 25-30 g • 6 New Zealand male rabbits weighing about 2-2.5 kg.
The animals after 90' from the last phospholipidic treatment or with THIS (as indicated later-on), are treated by parenteral route with S. Thyphi or E. Coli (Sigma) lipopolysaccharide.
Particularly: • mouse: injection of 5 µg LPS i.p. (1st experiment) or 25 µg LPS i.v. (2nd experiment) the blood sample is taken after 60 min. • rabbit: injection of 1 µg LPS i.v.. The blood sample is taken after 90 minutes.
The following products are tested: • BC-PS (phosphatidylserine in the commercially available form consisting of a composition comprising: phosphatidylserine extracted from bovine brain as described in example 1) • PS (phosphatidylserine) • PC (phosphatidylcholine) • PG (phosphatidylglycerol) • DPS (lysophosphatidylserine) • PE (phosphatidylethanolamine) • […] (1-myristoyl-2-deoxi-3-glycerophospho-L-serine) The phospholipids purity and their composition are determined by thin layer bidimensional chromatography (Punzi, L. et al.: Phospholipids in inflammatory synovial effusions. Rheumatol. Int. 6, 7-11, 1986).
Phospholipids are then solubilized in 50 mM TRIS-HCl pH 7.8 and suitably sonicated.
The phospholipidic dispersion is then injected in animals under the following conditions: • mouse: BC-PS 15-30 mg/kg/die i.p. for 3 days or 30 mg/kg/die i.v. for 3 days DPS, PSS₄ 20 mg/kg/die i.p. for 3 days PS, PC, PG, PE 25 mg/kg/die i.p. for 3 days • rabbit: 30 mg/kg/die i.v. for 5 days.
LPS is then administered following the above mentioned conditions with successive blood sample for the seric TNF dosage.
The level of seric TNF was evaluated by biological dosage, using the fibroblasts line L-929 of murine sarcoma (American type culture collection). In fact TNF is cytotoxic against said line (Meager A. et al.: Assays for tumor necrosis factor and related cytokines. J. Immunol. Methods 116: 1-17, 1989).
Shortly, 5 x 10⁴ cells are cultured in 96 well plates with 0.1 ml RPMI 1640 medium containing 10 % (v/v) of bovine serum inactivated at 56 °C for 30'.
After 18 hours the medium is replaced with 0.1 ml of fresh medium, containing serial dilutions of serum samples to be tested in the presence of actinomycin D (2 µg/ml) and lithium chloride 20 mM in order to increase the method sensitivity, namely the TNF cytotoxicity (Beyaert R. et al.: Lithium chloride potentiates tumor necrosis factor-mediated cytotoxicity in vitro and in vivo. Proc. Natl. Acad. Sci. 86: 9494-9498, 1989).
An […] (4000 U/ml of TNF-α(Genzyme) is added to 3 wells in every plate and said wells are utilized as positive control in order to check the sensitivity level of the cellular line, namely to verify the specificity dosage.
As negative controls, wells containing untreated mice serum, are used.
After 18 hours the medium is sucked and replaced with 0.1 ml of a saline solution containing 30 mM of glucose and 0.45 mg/ml of MTT tetrazolium (3-[4,5-dimethylthiazol-2-yl]-2,5 diphenyl-tetrazolium bromide. Then, after 4 hours, 0.1 ml of an acid solution of isopropanol (0.08 N HCl in isopropanol) is added and the absorbance is read by using a plate spectrophotometer scanner provided with a filter specific for 570 nm absorbance.
TNF cytotoxicity is calculated, by applying the formula: [formula] TNF-α title in serum samples is expressed in unit/ml and corresponds to the inverse of the dilution bringing to 50 % of cellular survival (Meager A. et al.: Assays for tumor necrosis factor and related cytokines. J. Immunol. Methods 116: 1-17, 1989).
In order to validate the test an anti-TNF-α murine antibody (Genzyme) is used which, as foreseen (see the results) blocks completely the cytotoxicity of murine serum but not the one of rabbit serum.

For `CCCCCCCCCCCCCC(=O)OCCCOP(=O)(O)OC[C@H](N)C(=O)O` [PSS₄, 1-myristoyl-2-deoxi-3-glycerophospho-L-serine], the TNF-α title treated (dose 20 mg/kg i.p. for 3 days) was 50±16 (5) U/serum ml. On to lysophosphatidylserine [DPS], for which, where the note is “dose 20 mg/kg i.p. for 3 days”, the “Inhibition (%)” value stood at 80% and the TNF-α title treated is 45±11 (5) U/serum ml. With “phosphatidylcholine [PC, reference compound]”, under “dose 25 mg/kg i.p. for 3 days”, the “Inhibition (%)” value stood at 16% and the TNF-α title treated is 176±53 (12) U/serum ml. In the same order, the values of phosphatidylethanolamine [PE] are 56% and 137±46 (6) U/serum ml. As to “phosphatidylglycerol [PG, reference compound]”, for the setting “dose 25 mg/kg i.p. for 3 days”, the “Inhibition (%)” value was “inactive” and the TNF-α title treated is recorded as 238±37 (18) U/serum ml. Taken in the same sequence, the figures for phosphatidylserine [PS] were 68% and 81±21 (9) U/serum ml.
